Columns and labels:
SOD1 mouse model = conditions: cited from earlier work
[1] = for Cmax GB: 4.5 mg, pH 2; for AUC / Cmax IB: pH 5.5
[2] = label / literature; cited from earlier work
in vivo = conditions: male, Sprague-Dawley, rat, 400 mg/kg
Protocol: Rats were allowed to eat ad libitum before testing. […] Following drug administration, 200 μl of plasma was collected from each animal at the following time points: 30, 60, 90, 120, 160 and 240 minutes. Plasma samples were snap frozen in liquid N2 and stored at −80° C. until analysis.

[3] = SOD1 mouse model, published results (Shin et al. 2012; Lincecum et al. 2010)

SMILES: CC(C)Cc1ccc(C(C)C(=O)O)cc1 (stereo not shown) [ibuprofen]
- decreased lifespan after onset of neurological disease (SOD1 mouse model; [3]): 10%

SMILES: O=C(O)c1cc(N=Nc2ccc(S(=O)(=O)Nc3ccccn3)cc2)ccc1O [Amorphous sulfasalazine, sulfasalazine]
- Cmax GB [1]: 154000 ng/mL
- AUC [1]: 30,300 min * ug/mL
- Cmax IB [1]: 372000 ng/mL

SMILES: Nc1nc2ccc(OC(F)(F)F)cc2s1 [riluzole]
- increased absolute lifespan (SOD1 mouse model; SOD1 model, Lincecum et al. 2010): 1.6%
- increased lifespan after onset of neurological disease (SOD1 mouse model; [3]): 1%

SMILES: Nc1ccc(S(=O)(=O)Nc2ccccn2)cc1 [Sulfapyridine, sulfapyridine]
- bioavailability (share reaching the circulation following oral dosing) [2]: > 70%

SMILES: O=C(O)c1cc(N=Nc2ccc(S(=O)(=O)Nc3ccccn3)cc2)ccc1O [Crystalline sulfasalazine, sulfasalazine]
- Cmax GB [1]: 15000 ng/mL
- AUC [1]: 22,200 min * ug/mL
- Cmax IB [1]: 282000 ng/mL
- concentration at 0.5 h (in vivo): 1490 ng/mL
- concentration at 1 h (in vivo): 1140 ng/mL
- concentration at 1.5 h (in vivo): 1430 ng/mL
- concentration at 2 h (in vivo): 1260 ng/mL
- concentration at 3 h (in vivo): 1030 ng/mL
- concentration at 4 h (in vivo): 850 ng/mL

From patent publication US10398713B2, “Compositions and methods for the treatment of neurodegenerative and other diseases” (Glialogix, Inc., priority 2013, dated 2019)
